# Measured values as given in ChEMBL document CHEMBL3779770, “Synthesis, biological evaluation and molecular docking study of some novel indole and pyridine based 1,3,4-oxadiazole derivatives as potential antitubercular agents” (Bioorg Med Chem Lett, 2016).
# Columns and labels:
# [1] = Cytotoxicity against human PANC1 cells after 48 hrs by MTT assay; type: cell-based, PANC-1; settings: for GI50 at 48 h: PANC1 cells; for GI90: panc-1, 48 h
# Bacillus subtilis = experiment: Antibacterial activity against Bacillus subtilis NCIM 2079 after 12 hrs; type: functional, organism-based; settings: NCIM 2079, 12 h
# [2] = test system: Mycobacterium tuberculosis; experiment: Antitubercular activity against dormant state Mycobacterium tuberculosis H37Ra assessed as viable cells after 12 days by XTT reduction menadione assay; type: functional, organism-based; settings: 288 h
# [3] = (§1) Cytotoxicity against human A549 cells after 48 hrs by MTT assay; type: cell-based; settings: A549 cells
# A549 = experiment: as §1; type: cell-based; settings: a549, 48 h
# [4] = (§2) Cytotoxicity against human HeLa cells after 72 hrs by MTT assay; type: cell-based; settings: HeLa cells
# HeLa = experiment: as §2; type: cell-based; settings: hela, 72 h
# Staphylococcus aureus = experiment: Antibacterial activity against Staphylococcus aureus NCIM 2010 after 12 hrs; type: functional, organism-based; settings: NCIM 2010, 12 h
# Escherichia coli = experiment: Antibacterial activity against Escherichia coli NCIM 2688 after 8 hrs; type: functional, organism-based; settings: NCIM 2688, 8 h
# Pseudomonas fluorescens = experiment: Antibacterial activity against Pseudomonas fluorescens NCIM 2036 after 8 hrs; type: functional, organism-based; settings: NCIM 2036, 8 h
# [5] = test system: Mycobacterium tuberculosis; experiment: Antitubercular activity against active state Mycobacterium tuberculosis H37Ra assessed as viable cells after 8 days by XTT reduction menadione assay; type: functional, organism-based; settings: 192 h
SMILES,GI50 at 48 h [1] [µg/mL],GI90 [1] [µg/mL],IC50 (Bacillus subtilis) [µg/mL],MIC (Bacillus subtilis) [µg/mL],IC50 [2] [µg/mL],MIC [2] [µg/mL],GI50 at 48 h [3] [µg/mL],GI90 (A549) [µg/mL],GI50 at 72 h [4] [µg/mL],GI90 (HeLa) [µg/mL],IC50 (Staphylococcus aureus) [µg/mL],MIC (Staphylococcus aureus) [µg/mL],IC50 (Escherichia coli) [µg/mL],MIC (Escherichia coli) [µg/mL],IC50 (Pseudomonas fluorescens) [µg/mL],MIC (Pseudomonas fluorescens) [µg/mL],IC50 [5] [µg/mL],MIC [5] [µg/mL]
O=C(/C=C\c1cccc(Br)c1)N1N=C(c2ccncc2)OC1c1c[nH]c2ccccc12 (configuration not stated),> 30,> 30,4.74,22.6,> 30,> 30,> 30,> 30,> 30,> 30,2.01,21.1,2.39,18.2,3.19,19.1,> 30,> 30
O=C(/C=C\c1ccc(O)cc1)N1N=C(c2ccncc2)OC1c1c[nH]c2ccccc12 (configuration not stated),> 30,> 30,> 256,> 256,> 30,> 30,> 30,> 30,> 30,> 30,> 256,> 256,> 256,> 256,45,> 256,> 30,> 30
O=C(/C=C\c1ccc(Cl)cc1)N1N=C(c2ccncc2)OC1c1c[nH]c2ccccc12 (configuration not stated),> 30,> 30,> 256,> 256,> 30,> 30,> 30,> 30,> 30,> 30,> 256,> 256,> 256,> 256,> 256,> 256,> 30,> 30
O=C(/C=C\c1ccc(Br)cc1)N1N=C(c2ccncc2)OC1c1c[nH]c2ccccc12 (configuration not stated),> 30,> 30,15.2,> 256,> 30,> 30,> 30,> 30,> 30,> 30,12.8,> 256,12.1,> 256,10.4,> 256,> 30,> 30
CC1(C)S[C@@H]2[C@H](NC(=O)[C@H](N)c3ccccc3)C(=O)N2[C@H]1C(=O)O [AMPICILLIN],–,–,3.15,10.3,–,–,–,–,–,–,0.42,1,0.086,1.46,1.87,4.36,–,–
O=C(/C=C\c1ccccc1)N1N=C(c2ccncc2)OC1c1c[nH]c2ccccc12 (configuration not stated),> 30,> 30,12.7,45.4,> 30,> 30,> 30,> 30,> 30,> 30,11.9,42.2,10.3,50.5,11.1,51.3,28.7,> 30
NC[C@H]1O[C@H](O[C@H]2[C@H](O)[C@@H](O[C@H]3O[C@H](CO)[C@@H](O)[C@H](N)[C@H]3O)[C@H](N)C[C@@H]2N)[C@H](O)[C@@H](O)[C@@H]1O [KANAMYCIN],–,–,0.37,1.35,–,–,–,–,–,–,> 30,> 33,0.13,1.62,0.014,0.49,–,–
O=C(/C=C\c1cccc(Cl)c1)N1N=C(c2ccncc2)OC1c1c[nH]c2ccccc12 (configuration not stated),> 30,> 30,19.3,> 256,> 30,> 30,> 30,> 30,> 30,> 30,14.5,> 256,14,> 256,12.1,> 256,2.54,> 30
O=C(/C=C\c1cccc(O)c1)N1N=C(c2ccncc2)OC1c1c[nH]c2ccccc12 (configuration not stated),> 30,> 30,19.8,121,> 30,> 30,> 30,> 30,> 30,> 30,18.2,84.4,16.6,49.2,17.4,82.8,> 30,> 30
CC(=O)O[C@H]1C(=O)[C@@]2(C)[C@H]([C@H](OC(=O)c3ccccc3)[C@]3(O)C[C@H](OC(=O)[C@H](O)[C@@H](NC(=O)c4ccccc4)c4ccccc4)C(C)=C1C3(C)C)[C@]1(OC(C)=O)CO[C@@H]1C[C@@H]2O [PACLITAXEL],0.0038,0.078,–,–,–,–,0.12,5.88,0.005,0.075,–,–,–,–,–,–,–,–
O=C(/C=C\c1ccccc1F)N1N=C(c2ccncc2)OC1c1c[nH]c2ccccc12 (configuration not stated),> 30,> 30,32,> 256,> 30,> 30,> 30,> 30,> 30,> 30,28.8,202,25.6,> 256,26.4,> 256,> 30,> 30
COc1ccc(/C=C\C(=O)N2N=C(c3ccncc3)OC2c2c[nH]c3ccccc23)cc1 (configuration not stated),> 30,> 30,15.7,156,> 30,> 30,> 30,> 30,> 30,> 30,7.72,88.1,14,182,15.7,101,> 30,> 30
O=C(/C=C\c1ccc(F)cc1)N1N=C(c2ccncc2)OC1c1c[nH]c2ccccc12 (configuration not stated),> 30,> 30,15.6,> 256,> 30,> 30,> 30,> 30,> 30,> 30,12.9,> 256,13.6,> 256,7.33,> 256,> 30,> 30
Cc1ccc(/C=C\C(=O)N2N=C(c3ccncc3)OC2c2c[nH]c3ccccc23)cc1 (configuration not stated),> 30,> 30,6.53,10.3,> 30,> 30,> 30,> 30,> 30,> 30,5.73,9.46,3.33,7.86,4.13,8.66,> 30,> 30
O=C(/C=C\c1cccc(F)c1)N1N=C(c2ccncc2)OC1c1c[nH]c2ccccc12 (configuration not stated),> 30,> 30,> 256,> 256,> 30,> 30,> 30,> 30,> 30,> 30,> 256,> 256,> 256,> 256,> 256,> 256,> 30,> 30
O=C(/C=C/c1c(Cl)cccc1Cl)N1N=C(c2ccncc2)OC1c1c[nH]c2ccccc12 (configuration not stated),> 30,> 30,19.2,> 256,13.7,> 30,> 30,> 30,> 30,> 30,86.8,148,14.8,> 256,15.6,> 256,12.7,> 30
O=C(/C=C\c1cccc(Cl)c1Cl)N1N=C(c2ccncc2)OC1c1c[nH]c2ccccc12 (configuration not stated),> 30,> 30,8.39,168,> 30,> 30,> 30,> 30,> 30,> 30,7.59,162,5.99,159,6.79,198,> 30,> 30
O=C(/C=C\c1ccccc1Cl)N1N=C(c2ccncc2)OC1c1c[nH]c2ccccc12 (configuration not stated),> 30,> 30,4.13,22,> 30,> 30,> 30,> 30,> 30,> 30,3.33,29.2,1.73,27.6,2.53,25.2,11.6,> 30
